Tests used:
Assay type in all cases: functional
[1] = system: Pseudomonas aeruginosa; assay: Potentiation of ceftazidime-induced antibacterial activity against carbapenem-resistant Pseudomonas aeruginosa 86052 clinical isolate assessed as ceftazidime MIC at 8.7 uM by checkerboard assay (reference value: 64 ug/ml)
[2] = system: Pseudomonas aeruginosa; assay: Potentiation of aztreonam-induced antibacterial activity against carbapenem and colistin-resistant Pseudomonas aeruginosa 101243 clinical isolate assessed as aztreonam MIC at 8.7 uM by checkerboard assay (reference value: 32 ug/ml)
[3] = system: Pseudomonas aeruginosa; assay: Potentiation of aztreonam-induced antibacterial activity against carbapenem-resistant Pseudomonas aeruginosa 109084 clinical isolate assessed as aztreonam MIC at 8.7 uM by checkerboard assay (reference value: 64 ug/ml)
[4] = system: Pseudomonas aeruginosa; assay: Potentiation of aztreonam-induced antibacterial activity against carbapenem-resistant Pseudomonas aeruginosa 107092 clinical isolate assessed as aztreonam MIC at 8.7 uM by checkerboard assay (reference value: 64 ug/ml)
[5] = system: Pseudomonas aeruginosa; assay: Potentiation of aztreonam-induced antibacterial activity against carbapenem-resistant Pseudomonas aeruginosa 259-96918 clinical isolate expressing metallo-beta-lactamase assessed as aztreonam MIC at 8.7 uM by checkerboard assay (reference value: 32 ug/ml)
[6] = system: Pseudomonas aeruginosa; assay: Potentiation of ceftazidime-induced antibacterial activity against wild-type Pseudomonas aeruginosa PAO1 assessed as ceftazidime MIC at 8.7 uM by checkerboard assay (reference value: 2 ug/ml)
[7] = system: Pseudomonas aeruginosa; assay: Potentiation of ceftazidime-induced antibacterial activity against carbapenem and colistin-resistant Pseudomonas aeruginosa 114228 clinical isolate assessed as ceftazidime MIC at 8.7 uM by checkerboard assay (reference value: 8 ug/ml)
[8] = system: Pseudomonas aeruginosa; assay: Potentiation of aztreonam-induced antibacterial activity against carbapenem-resistant Pseudomonas aeruginosa 86052 clinical isolate assessed as aztreonam MIC at 8.7 uM by checkerboard assay (reference value: 64 ug/ml)
[9] = system: Pseudomonas aeruginosa; assay: Potentiation of ceftazidime-induced antibacterial activity against carbapenem-resistant Pseudomonas aeruginosa 101885 clinical isolate assessed as ceftazidime MIC at 8.7 uM by checkerboard assay (reference value: 8 ug/ml)
[10] = system: Pseudomonas aeruginosa; assay: Potentiation of ceftazidime-induced antibacterial activity against carbapenem-resistant Pseudomonas aeruginosa 100036 clinical isolate assessed as ceftazidime MIC at 8.7 uM by checkerboard assay (reference value: 8 ug/ml)
[11] = system: Pseudomonas aeruginosa; assay: Potentiation of ceftazidime-induced antibacterial activity against carbapenem-resistant Pseudomonas aeruginosa PAO750 harboring mexAB-oprM/mexCD-oprJ/mexEF-oprN/mexJK/mexXY/opmH efflux deficient mutant assessed as ceftazidime MIC at 8.7 uM by checkerboard assay (reference value: 0.5 ug/ml)
[12] = system: Pseudomonas aeruginosa; assay: Potentiation of aztreonam-induced antibacterial activity against carbapenem-resistant Pseudomonas aeruginosa 100036 clinical isolate assessed as aztreonam MIC at 8.7 uM by checkerboard assay (reference value: 16 ug/ml)

## NC[C@H]1O[C@H](O[C@H]2[C@H](OCCCCCCCCN3CCCNCCNCCCNCC3)[C@@H](O[C@H]3O[C@H](CO)[C@@H](O)[C@H](N)[C@H]3O)[C@H](N)C[C@@H]2N)[C@H](N)C[C@@H]1O.O=C(O)C(F)(F)F.O=C(O)C(F)(F)F.O=C(O)C(F)(F)F.O=C(O)C(F)(F)F.O=C(O)C(F)(F)F.O=C(O)C(F)(F)F.O=C(O)C(F)(F)F.O=C(O)C(F)(F)F.O=C(O)C(F)(F)F
[1]
  MIC: 64 µg/mL
[2]
  MIC: 8 µg/mL
[3]
  MIC: 8 µg/mL
[4]
  MIC: 16 µg/mL
[5]
  MIC: 4 µg/mL
[6]
  MIC: 0.25 µg/mL
[7]
  MIC: 1 µg/mL
[8]
  MIC: 16 µg/mL
[9]
  MIC: 1 µg/mL
[10]
  MIC: 2 µg/mL
[11]
  MIC: 0.06 µg/mL
[12]
  MIC: 2 µg/mL

From ChEMBL document CHEMBL4665836, “Overcoming β-Lactam resistance in Pseudomonas aeruginosa using non-canonical tobramycin-based antibiotic adjuvants” (2020)
